Experimental data taken from PMC12142043, “Cell-based high-content approach for SARS-CoV-2 neutralization identifies unique monoclonal antibodies and PI3K pathway inhibitors” (Frontiers in Cell and Developmental Biology, 2025).

Tested on: SARS-CoV-2 (USA-WA1/2020) in Calu-3 cells
Assay type: cell-based
Conditions: Calu-3, 48 h; for dsRNA signal, AU High: high dose (10 µM); for dsRNA signal, AU Low: low dose (100 nM)

Compound	dsRNA signal, AU High [AU]	dsRNA signal, AU Low [AU]
O=C(Nc1cccc(Nc2nccc(Nc3cccc(C(F)(F)F)c3)n2)c1)C1CC1 [Aurora Kinase Inhibitor III]	2378.0	11511.4
CNC(=O)c1ccccc1Sc1ccc2c(/C=C/c3ccccn3)n[nH]c2c1 [Axitinib (AG 013736)]	42600.6	65444.2
CCN1CCN(c2ccc(Nc3cc(N(C)C(=O)Nc4c(Cl)c(OC)cc(OC)c4Cl)ncn3)cc2)CC1 [BGJ398]	24356.1	22673.4
CC[C@@H]1C(=O)N(C)c2cnc(Nc3ccc(C(=O)NC4CCN(C)CC4)cc3OC)nc2N1C1CCCC1 [BI 2536]	34739.4	58236.8
Cc1ccc(-n2nc(C(C)(C)C)cc2NC(=O)Nc2ccc(OCCN3CCOCC3)c3ccccc23)cc1 [BIRB 796 (Doramapimod)]	8315.3	13140.6
CN(C)Cc1cccc(N/C(=C2\C(=O)Nc3cc(C(N)=O)ccc32)c2ccccc2)c1 [BIX 02188]	40230.6	23376.7
NC(=O)c1ccc2nc(-c3ccc(Oc4ccc(Cl)cc4)cc3)[nH]c2c1 [BML-277]	33021.5	13488.9
Cc1ccc2nc(NCCN)c3ncc(C)n3c2c1.Cl [BMS345541 hydrochloride]	0.0	5872.9
CCCNC(=O)c1cn2ncnc(Nc3cc(C(=O)NC4CC4)ccc3C)c2c1C.Cl [BMS-582949 hydrochloride]	7441.1	64364.9
CCOc1ccn(-c2ccc(F)cc2)c(=O)c1C(=O)Nc1ccc(Oc2ccnc(N)c2Cl)c(F)c1 [BMS-777607]	39539.6	18689.6
CCn1c(C(=O)N(C2CC2)C2CC2)cc2c3c(ncn3C)c(Nc3cc(C)n(C)n3)nc21 [BMS-911543]	18362.9	16684.7
C=CC(=O)Nc1cc(-n2c(=O)ccc3cnc4ccc(-c5ccc(NS(C)(=O)=O)cc5)cc4c32)ccc1C [BMX-IN-1]	37737.5	26747.2
Cc1ccc(NC(=O)c2ccc(CN3CC[C@H](N(C)C)C3)c(C(F)(F)F)c2)cc1Nc1nccc(-c2cncnc2)n1 [Bafetinib (INNO-406)]	1113.6	32473.2
CCN(CCO)CCCOc1ccc2c(Nc3cc(CC(=O)Nc4cccc(F)c4)[nH]n3)ncnc2c1 [Barasertib (AZD1152-HQPA)]	48647.4	41038.0
CCS(=O)(=O)N1CC(CC#N)(n2cc(-c3ncnc4[nH]ccc34)cn2)C1 [Baricitinib (LY3009104, INCB028050)]	27614.1	24279.2
CCS(=O)(=O)N1CC(CC#N)(n2cc(-c3ncnc4[nH]ccc34)cn2)C1 [Baricitinib phosphate]	2518.9	32442.1
CC(C)(C)c1ccc(S(=O)(=O)/C=C/C#N)cc1 [Bay 11-7085]	63723.6	21705.2
O=C(O)CCC(=O)Nc1ccc(Br)cn1 [Bikinin]	39833.6	44813.6
COc1ccc(-c2coc3cc(O)cc(O)c3c2=O)cc1 [Biochanin A]	14982.3	21751.5
COc1cc(Nc2c(C#N)cnc3cc(OCCCN4CCN(C)CC4)c(OC)cc23)c(Cl)cc1Cl [Bosutinib (SKI-606)]	38090.7	42027.4
CCOc1ccc(Nc2ccc(/C(=C3C=C/C(=[N+](/CC)Cc4cccc(S(=O)(=O)[O-])c4)C=C/3C)c3ccc(N(CC)Cc4cccc(S(=O)(=O)O)c4)cc3C)cc2)cc1 [Brilliant Blue G]	11949.6	31753.4
Cc1cc2c(F)c(Oc3ncnn4cc(OC[C@@H](C)O)c(C)c34)ccc2[nH]1 [Brivanib (BMS-540215)]	51042.4	684.7
O=C(/C=C/c1ccc(O)c(O)c1)c1ccc(O)cc1O [Butein]	38311.3	14009.4
CCN1C(=O)CNc2ncc(-c3ccc(-c4nc[nH]n4)nc3C)nc21 [CC-115]	5666.1	44138.8
CO[C@H]1CC[C@H](N2C(=O)CNc3ncc(-c4ccc(C(C)(C)O)nc4)nc32)CC1 [CC-223]	6587.4	41988.9
NC1(Cc2ccc(Cl)cc2)CCN(c2ncnc3[nH]ccc23)CC1 [CCT128930]	1507.6	9152.4
Cc1cc(CN2CCN(c3c(Br)cnc4nc(-c5ccc(N6CCN(C)CC6)cc5)[nH]c34)CC2)no1 [CCT137690]	0.0	46657.6

Compound	dsRNA signal, AU High [AU]	dsRNA signal, AU Low [AU]
CN1CCN(c2cccc(Nc3nc4c(-c5ccc(S(C)(=O)=O)cc5)cccn4n3)c2)CC1 [CEP-33779]	12244.2	3458.4
Cc1c(NC(=O)c2ccc(C(C)(C)C)cc2)cccc1-c1cn(C)c(=O)c(Nc2ccc(C(=O)N3CCOCC3)cc2)n1 [CGI-1746]	34116.6	18368.1
Nc1ncnc2n[nH]c(Nc3ccc(F)cc3)c12 [CGP 57380]	1947.6	33084.2
O=c1[nH]c2ccc(Cl)cc2c(N[C@@H]2CN3CCC2CC3)c1-c1nc2ccccc2[nH]1 [CHIR-124]	9794.1	2244.6
Cc1cnc(-c2cnc(NCCNc3ccc(C#N)cn3)nc2-c2ccc(Cl)cc2Cl)[nH]1 [CHIR-99021 (CT99021)]	62333.9	10204.7
O=C1NCCCc2c1oc1ccc(O)cc21 [CID 755673]	9033.3	7582.1
O=C(Nc1ccc(CN2CCOCC2)cc1)c1ccc(-c2cccc(Cl)c2)o1 [CID 2011756]	3490.5	12424.4
C=CC(=O)Nc1cccc(Nc2nc(Nc3ccc(N4CCN(C(C)=O)CC4)cc3OC)ncc2C(F)(F)F)c1 [CO-1686 (AVL-301)]	16434.5	26200.1
Cn1cc(C2=C(c3cccc(N)c3)C(=O)NC2=O)c2ccccc21 [CP21R7]	5189.9	2975.5
COc1cc2ncnc(-n3nc(-c4ccccn4)nc3N)c2cc1OC [CP-466722]	23326.1	24439.1
COCCOc1ccc2c(c1)ncn2-c1ccc2cccc(N3CCC(N)CC3)c2n1 [CP-673451]	14720.6	4566.7
COCC(=O)NC/C=C/c1ccc2ncnc(Nc3ccc(Oc4ccc(C)nc4)c(C)c3)c2c1 [CP-724714]	1118.3	29983.8
O=C(O)CCCCC(CCSCc1ccccc1)SCc1ccccc1 (stereo not drawn) [CPI-613]	36.8	25399.4
CC[C@@H](N)CNc1ccnc(-c2cc(-c3cnn(C)c3)ccc2O)n1.Cl.Cl [CRT 0066101]	0.0	45629.7
O=C(O)c1ccc2c(c1)nc(Nc1cccc(Cl)c1)c1ccncc12 [CX-4945 (Silmitasertib)]	35326.5	21811.4
CN1CCCN(C(=O)c2cccc(-c3ccc(/C=C4/C(=O)Nc5ccc(Cl)cc54)o3)c2)CC1 [CX-6258]	0.0	9957.5
COc1cc2nccc(Oc3ccc(NC(=O)C4(C(=O)Nc5ccc(F)cc5)CC4)cc3)c2cc1OC [Cabozantinib (XL184, BMS-907351)]	13075.8	39205.8
COc1cc2nccc(Oc3ccc(NC(=O)C4(C(=O)Nc5ccc(F)cc5)CC4)cc3)c2cc1OC.O=C(O)C[C@H](O)C(=O)O [Cabozantinib malate (XL184)]	148.7	24276.1
COc1cc2c(Oc3ccc4[nH]c(C)cc4c3F)ncnc2cc1OCCCN1CCCC1 [Cediranib (AZD217)]	1359.3	15765.2
CCS(=O)(=O)N1CCN(c2ccc(Nc3ncc(C(N)=O)c(NC4CC4)n3)cc2)CC1 [Cerdulatinib (PRT062070)]	60131.0	21245.1
COc1ccc2c(c[n+](C)c3c4cc5c(cc4ccc23)OCO5)c1OC [Chelerythrine Chloride]	10306.1	22120.5
CCN(CC)CCCC(C)Nc1ccnc2cc(Cl)ccc12 (stereo not drawn) [Chloroquine diphosphate]	4180.7	1072.6
O=C(c1ccc(F)c(F)c1Nc1ccc(I)cc1F)N1CC(O)([C@@H]2CCCCN2)C1 [Cobimetinib]	1412.8	21814.8
O=C(O)c1cc(=O)c2c(OCC(O)COc3cccc4oc(C(=O)O)cc(=O)c34)cccc2o1 [Cromolyn sodium]	64024.7	17957.1
CC(C)(O)/C=C/C(=O)[C@](C)(O)[C@H]1[C@H](O)C[C@@]2(C)[C@@H]3CC=C4[C@@H](C=C(O)C(=O)C4(C)C)[C@]3(C)C(=O)C[C@]12C [Cucurbitacin I]	39627.9	39750.1
C=C1C[C@@]2(O)O[C@@]3(C[C@H]2C(C)C)[C@@H](C)CC[C@@H]13 [Curcumol]	0.0	41441.3
C[C@@H]1C(=O)O[C@H](C)[C@H]1C[C@@H](O)[C@](C)(O)[C@H]1CC[C@@]2(O)C3=CC(=O)[C@@H]4C[C@@H](O)[C@@H](O)C[C@]4(C)[C@H]3CC[C@]12C [Cyasterone]	81.6	11248.2
